We go through 1 substance from patent publication US20210213103A1, “METHODS OF TREATING DRY EYE SYNDROME” (REGENTREE, LLC, priority 2016, published 2021).

The subject of data set [1] is subjects with dry eye. Nature of the data set: Tear film break up time (TFBUT), Example 1 clinical study. It is filed as in vivo, human. The following applies: for Tear Film Break Up Time, change from baseline (mean): visit 2 (baseline) to visit 5, 0.05% and 0.1% groups pooled; for Tear Film Break Up Time, Mean Difference between Tβ4 and Placebo (Tβ4-Placebo): visit 2 to visit 5. As for the experimental part: As used herein, the terms “tear breakup time” or “TBUT” or “tear film breakup time” or “TFBUT” can refer to a clinical test that measures the interval between the individual's last complete blink and the breakup of the tear film. The test can be used to assess for DES. To measure TBUT, fluorescein is instilled into the patient's tear film and the patient is asked not to blink while the tear film is observed under a broad beam of cobalt blue illumination. The TBUT is recorded as the number of seconds that elapse between the last blink and the appearance of the first dry spot in the tear film.
The presently disclosed subject matter also provides for methods of improving tear film stability. Tear film stability can be evaluated by various assessments in the art, including but not limited to a TFBUT analysis. […] In order to achieve maximum fluorescence, an appropriate waiting period is implemented after instillation before evaluating TFBUT. With the aid of a slit-lamp, the integrity of the tear film can be monitored by noting the time it takes to form […] from the time that the eye is opened. TFBUT can be measured in seconds using a stopwatch and a digital image recording system for one eye followed by the second eye. A negative test result is normal, whereby more than about 10 seconds of TFBUT is recorded.
This study was a multicenter, randomized, double-masked study designed to evaluate the efficacy and safety of 0.05% and 0.1% Tβ4 ophthalmic solution compared to placebo in subjects with dry eye.
The study consisted of two periods: a 7-day run-in period and a 28-day treatment period.
The clinical dosage form and packaging of Tβ4 ophthalmic solution and the placebo ophthalmic solutions were identical sterile, low-density polyethylene unit-dose non-preserved bottles. They were packaged in foil-wrap pouches to prevent light exposure, each containing single-use bottles. Throughout the study, between day 1 and day 29, patients were instructed to instill one drop of study medication in each eye four times daily, once in the morning, noon, afternoon and in the evening before bed. Patients were assigned randomization kit numbers in strict numerical sequence, using a code generated by an independent biostatistician. All investigators, study and site personnel, and patients were masked to the treatment assignments.
Patients were evaluated on day 8 (visit 3), day 15 (visit 4), and day 29 (visit 5) during the dosing period. Exposure to the CAE occurred on days 14 and 28. At each study visit, a panel of dry eye signs and symptoms and safety measures were evaluated (including both before [pre-CAE] and after [post-CAE] exposure).

The conditions of data set [2]: injectable solution, 14 consecutive days, four escalating dose levels; cited from earlier work.
[3] abbreviates: higher tear film stability group.
Where [4] appears, read: lower tear film stability group.

For thymosin beta 4 [Tβ4], in data set [1] (setting [3]), the “Tear Film Break Up Time, change from baseline (mean)” value stood at 0.14 s; the “Tear Film Break Up Time, Mean Difference between Tβ4 and Placebo (Tβ4-Placebo)” value is 0.09 s. Further, in data set [1] (setting [4]), the “Tear Film Break Up Time, change from baseline (mean)” value was determined as 0.74 s; the “Tear Film Break Up Time, Mean Difference between Tβ4 and Placebo (Tβ4-Placebo)” value stood at 0.20 s. In addition, the safety and tolerability result in data set [2] was “safe and well-tolerated”.
